From patent USRE37828E1, “Treatment and prevention of adhesions” (Hadasit Medical Research Services & Development Co., Ltd., priority 1997, dated 2002)
“And” between values parts separate entries of the source, which are not always exact repeats. Equal values may be shown once.

Assays:
[1] = tested on: skin wound; assay: Wound healing and collagen content of skin wounds in irradiated and non-irradiated mice; assay type: in vivo, C3H mice; conditions: Halofuginone 1 μg/mouse i.p. every other day, 14 days
Procedure: The experiment was conducted as follows. First C3H, defined-flora, pathogen-free female mice of 12-14 weeks of age were anesthetized with 60 mg/kg sodium phenobarbital. The mice were then shaved. One group of mice was then irradiated as follows. First, a flap of skin about 40 mm long and about 20 mm wide was pulled through a slit in the lead cover of an irradiation jig and secured with tape, so that only the flap of skin was exposed. This exposed skin was then irradiated by using a 175 kVp/20 mA orthovoltage X-ray source, with a 2 mm Cu filter at a dose rate of 1.0 Gy/min. A standard dose of 18 Gy was delivered.
All of the mice were then wounded by making a fill depth incision, about 25 mm long, in the skin along the midline of the lower back. Note that for the irradiated animals, the wound was made within the irradiated area, immediately following irradiation. For all mice, the incision was immediately closed by 3-4 metallic wound closure clips which were removed 2 days later.
After wounding, the mice were injected i.p every other day, either with 1 μg/mouse Halofuginone or with saline as a control. After 14 days, 2 days following the last injection, the mice were sacrificed and skin samples were collected into phosphate-buffered saline (PBS) and fixed in 4% paraformaldehyde in PBS at 4° C. […]

[2] = tested on: collagen type I; assay: Collagen α1(I) gene expression and collagen type I content in surgically insulted abdominal tissue (in situ hybridization, Sirius red); assay type: in vivo; conditions: rats with surgery, Halofuginone i.p. daily for 21 days
Procedure: (§1) The experiments were performed as follows. First, the abdomen of the rats was shaved and prepared with iodine and alcohol. The abdominal cavity was entered through a mid-line incision. The small intestine was scraped from the duodenum down to from about 9 to about 10 cm from the cecum, until capillary bleeding occurred. To avoid drying, Hartman's solution at about 37° C. was occasionally dripped on the intestine. After replacement of the intestine into the abdominal cavity, the abdomen was closed in two layers with continuous 00 chromic catgut suture. […] Res., Vol 17, p. 254-258, 1985]. After 21 days, the rats were sacrificed and the sutures were reopened to determine the level of adhesion formation and to take biopsies of the tissue.
The tissue was sectioned so that histological studies could be performed. Briefly, the tissue samples were collected into phosphate-buffered saline (PBS) and fixed overnight in 4% paraformaldehyde in PBS at 4° C. Serial 5 μm sections were prepared after the samples had been dehydrated in graded ethanol solutions, cleared in chloroform and embedded in Paraplast. Differential staining of collagenous and non-collagenous proteins were performed with 0.1% Sirius red and 0.1% fast green as a counter-stain in picric acid. This procedure stains collagen red [Gascon-Barre, M., et al., J. Histochem. Cytochem., Vol 37, p. 377-381, 1989].
For hybridization with the genetic probe, the sections were deparafinized in xylene, rehydrated through a graded series of ethanol solutions, rinsed in distilled water for 5 minutes and then incubated in 2×SSC [What is the recipe?] at 70° C. for 30 minutes. The sections were then rinsed in distilled water and treated with pronase, 0.125 mb/ml in 50 mM Tris-HCl, 5 mM EDTA, pH 7.5 for 10 minutes. […] Alkaline phosphatase activity was detected in the sections as previously described [Knopov, V., et al., Bone, Vol 16 p. […]
After 21 days, tissue samples were taken for histological analysis as described above. Both collagen type I content of the tissue, and the level of collagen a(1)I gene expression were measured.

[3] = tested on: skin wound; assay: Wound strength (bursting point of skin strips, Instron tensiometer); assay type: in vivo, rats; conditions: irradiated or non-irradiated animals, one or six injections of Halofuginone; FIG. 5
Procedure: Wound strength was assessed by preparing rats substantially as described above, except that one group of rats (not irradiated) only received one injection of Halofuginone after wounding. The strength of wounds was measured as follows. First, a square of skin which was approximately 20 mm long and 16 mm wide, and which included the main part of the wound, was excised from sacrificed rats. Next, the skin was cut, perpendicular to the wound, to yield 7 strips of skin, each of which was 2 mm wide. The skin strips were secured between paper reinforcement frames and loaded on an Instron tensiometer for stretching at a constant rate of 25 mm/min. The bursting point was then recorded.

[4] = tested on: collagen type I; conditions: cited from earlier work
[5] = tested on: alkaline phosphatase; assay: Alkaline phosphatase activity in tissue sections after abdominal surgery; assay type: in vivo; conditions: rats with surgery injected with Halofuginone, 21 days; FIG. 3C
Procedure: For hybridization with the genetic probe, the sections were deparafinized in xylene, rehydrated through a graded series of ethanol solutions, rinsed in distilled water for 5 minutes and then incubated in 2×SSC [What is the recipe?] at 70° C. for 30 minutes. The sections were then rinsed in distilled water and treated with pronase, 0.125 mb/ml in 50 mM Tris-HCl, 5 mM EDTA, pH 7.5 for 10 minutes. After digestion, the slides were rinsed with distilled water, post-fixed in 10% formalin in PBS and blocked in 0.2% glycine. After blocking, the slides were rinsed in distilled water, rapidly dehydrated through graded ethanol solutions and air-dried for several hours. Before hybridization, the 1600 bp rat collagen α1(I) insert was cut out from the original plasmid, pUC18, and inserted into the pSafyre plasmid. The sections were then hybridized with this probe after digoxigenin-labelling. Alkaline phosphatase activity was detected in the sections as previously described [Knopov, V., et al., Bone, Vol 16 p. 329S-334S, 1995].
After 21 days, tissue samples were taken from all three groups of rats and histological sections were prepared as described in Example 1, and alkaline phosphatase activity was measured as described in Example 1.

[6] = tested on: abdominal adhesions; assay: Post-surgical abdominal adhesions in rats, Halofuginone in the diet: number and severity of adhesions; assay type: in vivo; design: key to Adhesion: 0=no adhesions; I=a thin, filmy, easily separated adhesion; II=several thin adhesions; III=a thick, broad adhesion; IV=several thick adhesions; conditions: for Adhesion: one rat per row
Procedure: as §1
In the double-blind procedure, adhesions were classified according to the following grading: 0=no adhesions; I=a thin, filmy, easily separated adhesion; II=several thin adhesions; III=a thick, broad adhesion and IV=several thick adhesions. Clearly, 0 is the least severe and IV is the most severe grade.
(§2) In the second experiment, Halofuginone was administered in the diet of two groups of rats at a concentration of 5 mg/kg dry feed for 4 days before surgery, as a pretreatment. Two other groups of rats were fed a normal diet and served as control groups. One of the groups of rats fed Halofuginone and one control group the underwent surgery as described above. Halofuginone treatment was continued for 21 days following surgery, after which the rats were sacrificed and the number and severity of adhesions were determined, and body weight was measured.

[7] = design: species or system rats; conditions: rat, in vivo
Procedure: as §2

[8] = tested on: abdominal adhesions; assay: Post-surgical abdominal adhesions in rats, Halofuginone i.p. injection: number and severity of adhesions; assay type: in vivo; design: key to Adhesion Score: 0=no adhesions; I=a thin, filmy, easily separated adhesion; II=several thin adhesions; III=a thick, broad adhesion; IV=several thick adhesions
Procedure: as §1
The experiment was performed as follows. Abdominal adhesions were induced in two groups of rats as described above in Example 1. […] One group of the rats which underwent surgery received an i.p. injection of Halofuginone every day after the operation for 21 days. The rats were dosed according to body weight, with 1 ug of Halofuginone given per 25 g of body weight. […]
Two different tests were performed to assess the effect of Halofuginone on the number and severity of adhesions in rats which underwent surgery. […] At the end of 21 days, the rats were weighed and the number and severity of adhesions were determined according to a double-blind procedure. […]

[9] = tested on: adhesions between tendon and its sheath; conditions: chickens, local treatment through a catheter; cited from earlier work
[10] = design: species or system rats; conditions: rat, in vivo, ip
Procedure: The experiment was performed as follows. Abdominal adhesions were induced in two groups of rats as described above in Example 1. […] One group of the rats which underwent surgery received an i.p. injection of Halofuginone every day after the operation for 21 days. The rats were dosed according to body weight, with 1 ug of Halofuginone given per 25 g of body weight. The other group of rats which underwent surgery received saline injections for 21 days.
Two different tests were performed to assess the effect of Halofuginone on the number and severity of adhesions in rats which underwent surgery. […] The experimental method was as follows. For the first test, three groups of rats were prepared as described above in Example 2. At the end of 21 days, the rats were weighed and the number and severity of adhesions were determined according to a double-blind procedure.

[11] = tested on: peritoneal adhesions; conditions: rats, cited from earlier work
[12] = ascribed to effects on many collagen types and Fe++ ion-binding enzymes; cited from earlier work
[13] = tested on: adhesions; conditions: infertility surgery, gynecological surgeons; cited from earlier work

In the case of `O=C(CC1NCCCC1O)Cn1cnc2cc(Br)c(Cl)cc2c1=O` (centres unmarked) [Halofuginone], the “collagen content of the wound” value ([1]; irradiated (18 Gy) mouse, FIG. 4H) is reported as “significantly lowered”, the wound healing ([1]; irradiated and non-irradiated mice) is reported as “healed” and the “damage to the villi” value [2] is reported as “much less damage”. The “collagen α1(I) gene expression” value ([2]; FIG. 2C) was “low levels”, the “collagen type I content” value ([2]; FIG. 2F) was “low level” and the wound strength [3] was “did not reduce wound strength”. For the same compound, the “inhibition of synthesis of collagen type I versus other collagens (α2(I), type II, type III, type X)” value [4] was “only inhibits the synthesis of collagen type I”, the alkaline phosphatase activity [5] was “substantially no alkaline phosphatase activity” and the Adhesion ([6]; Group 2: rats with surgery, Halofuginone 5 mg/kg dry feed from 4 days before to 21 days after surgery) was 0-1 (3×) and 1 (3×) and 1-2 (2×) and 0 (2×). For the same compound, the Adhesion ([6]; Group 3: rats without surgery, Halofuginone 5 mg/kg dry feed) was 0, the “number of rats with an adhesion” value ([6]; Halofuginone in diet, rats with surgery, compared to untreated operated rats) was “smaller number” and the weight gain [7] was “substantially similar”. The “Adhesion Score” value ([8]; Group 2: rats with surgery, Halofuginone i.p. 1 ug per 25 g body weight daily for 21 days, one rat per row) was 0 (3×) and 0-1 and 2, the “number and severity of adhesions” value ([8]; Halofuginone-treated (i.p.) compared to non-treated rats after surgery) was “sharply reduced” and the “prevention of adhesions between tendon and sheath” value [9] was “effective”. The “reduction in weight gain” value [10] was “more pronounced”.
In the case of povidone-iodine, the “reduction of the number of peritoneal adhesions after surgery” value ([11]; effect ascribed to an anti-microbial effect) is given as 35%.
For `Oc1cc(O)c2c(c1)O[C@H](c1ccc(O)c(O)c1)[C@@H](O)C2` [cianidanol], the “number of post-surgical adhesions” value [11] is listed as “decrease” and the toxicity [12] is listed as “toxic”.
For dextran, the adhesive prevention [13] is given as “little success”.
